The assay addresses T1, Full-length human PRMT8 (Homo sapiens, UniProt Q9NR22).
T1 construct: Full-length human PRMT8 (NM_019854.4) isoform 1 transcript clone; made in house
Description: PRMT8 biochemical assay (3H-SAM Flashplate, peptide substrate). An excerpt:
General Materials. S-adenosylmethionine (SAM), S-adenosylhomocysteine (SAH), bicine, Tween20, dimethylsulfoxide (DMSO), bovine skin gelatin (BSG), isopropyl-β-D-thiogalactopyranoside (IPTG), and Tris(2-carboxyethyl)phosphine hydrochloride solution (TCEP) were purchased from Sigma-Aldrich at the highest level of purity possible. ^3H-SAM was purchase from American Radiolabeled Chemicals with a specific activity of 80 Ci/mmol. 384-well streptavidin Flashplates were purchased from PerkinElmer.
Substrates. Peptide representative of human histone H4 residues 31-45 was synthesized with an N-terminal linker-affinity tag motif and a C-terminal amide cap by 21st Century Biochemicals.
Protein Expression. E. coli (BL21(DE3) Gold, Stratagene) made competent by the CaCl2 method were transformed with the PRMT8 construct and ampicillin selection. Protein over-expression was accomplished by growing the PRMT8 expressing E. coli clone and inducing expression with 0.3 mM IPTG at 16° C. The culture was grown for 12 hours, harvested by centrifugation, and stored at −80° C. for purification.
Protein Purification. […] GST-tagged PRMT8 was eluted with 50 mM Tris, 2 mM glutathione, pH 7.8. Pooled fractions were cleaved by thrombin (10 U) and dialysed in buffer A. GST was removed by reloading the cleaved protein sample onto glutathione sepharose column and PRMT8 was collected in the flow-through fractions. PRMT8 was purified further by ceramic hydroxyapatite chromatography. The column was washed with 50 mM phosphate buffer, 100 mM NaCl, 5% glycerol, 5 mM β-mercaptoethanol, pH 7.8 and PRMT8 was eluted by 100 mM phosphate in the same buffer. Protein was concentrated and buffer was exchanged to 50 mM Tris, 300 mM NaCl, 10% glycerol, 5 mM β-mercaptoethanol, pH 7.8 by ultrafiltration.
General Procedure for PRMT8 Enzyme Assays on Peptide Substrates. The assays were all performed in a buffer consisting of 20 mM Bicine (pH=7.6), 1 mM TCEP, 0.005% BSG, and 0.002% Tween 20, prepared on the day of use. […] DMSO (1 ul) was added to Columns 11, 12, 23, 24, rows A-H for the maximum signal control and 1 ul of SAH, a known product and inhibitor of PRMT8, was added to columns 11, 12, 23, 24, rows I-P for the minimum signal control. A cocktail (40 ul) containing the PRMT8 enzyme was added by Multidrop Combi (Thermo-Fisher). The compounds were allowed to incubate with PRMT8 for 30 min at room temperature, then a cocktail (10 ul) containing ^3H-SAM and peptide was added to initiate the reaction (final volume=51 ul). […] The assays were stopped by the addition of non-radiolabeled SAM (10 ul) to a final concentration of 400 uM, which dilutes the ^3H-SAM to a level where its incorporation into the peptide substrate is no longer detectable. 50 ul of the reaction in the 384-well polypropylene plate was then transferred to a 384-well Flashplate and the biotinylated peptides were allowed to bind to the streptavidin surface for at least 1 hour before being washed once with 0.1% Tween20 in a Biotek ELx405 plate washer. The plates were then read in a PerkinElmer TopCount plate reader to measure the quantity of ^3H-labeled peptide bound to the Flashplate surface, measured as disintegrations per minute (dpm) or alternatively, referred to as counts per minute (cpm).
Where dpm=disintegrations per minute, cmpd=signal in assay well, and min and max are the respective minimum and maximum signal controls.
Where top and bottom are the normally allowed to float, but may be fixed at 100 or 0 respectively in a 3-parameter fit. The Hill Coefficient normally allowed to float but may also be fixed at 1 in a 3-parameter fit. Y is the % inhibition and X is the compound concentration.

T1 sequence (Q9NR22 whole entry, canonical isoform): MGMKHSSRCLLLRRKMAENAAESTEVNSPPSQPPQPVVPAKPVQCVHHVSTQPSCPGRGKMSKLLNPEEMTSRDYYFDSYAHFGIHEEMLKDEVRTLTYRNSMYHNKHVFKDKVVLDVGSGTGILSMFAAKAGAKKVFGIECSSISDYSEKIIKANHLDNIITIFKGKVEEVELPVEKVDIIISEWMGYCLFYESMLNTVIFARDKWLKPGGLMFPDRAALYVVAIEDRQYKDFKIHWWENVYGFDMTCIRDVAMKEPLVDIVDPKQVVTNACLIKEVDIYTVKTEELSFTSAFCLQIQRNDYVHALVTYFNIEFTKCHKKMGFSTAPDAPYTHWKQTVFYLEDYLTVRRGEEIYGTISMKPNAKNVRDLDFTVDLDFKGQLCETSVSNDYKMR

In turn, `COc1cccc(-c2n[nH]cc2CN(C)CCN)c1` [Compound 130] gave an IC50 of 101 to 1000 nM.
`Cc1cccc(-c2n[nH]cc2CN(C)CCN)c1` [Compound 131] yielded an IC50 of 101 to 1000 nM.
For `CN(CCN)Cc1c[nH]nc1-c1ccc(Cl)cc1F` [Compound 132], the IC50 fell in the range of 101 to 1000 nM.
To `Cc1cc(Cl)ccc1-c1n[nH]cc1CN(C)CCN` [Compound 133] belongs 101 to 1000 nM; to `COc1ccc(-c2n[nH]cc2CN(C)CCN)cc1F` [Compound 134], 101 to 1000 nM.
Consider `CN(CCN)Cc1c[nH]nc1-c1ccc(C(F)(F)F)cc1Cl` [Compound 135], for which the IC50 is 1010 to 3000 nM.
Next, `CCNC(=O)c1ccc(-c2n[nH]cc2CN(C)CCN)cc1` [Compound 136]: 101 to 1000 nM.
Regarding `CN(CCN)Cc1c[nH]nc1-c1cc(Cl)cc(Cl)c1` [Compound 137], the IC50 lay within 101 to 1000 nM.
`CN(CCN)Cc1n[nH]cc1-c1ccc(OC(F)F)cc1` [Compound 138] had an IC50 of 101 to 1000 nM.
To `CN(CCN1CCCC1)Cc1c[nH]nc1-c1ccc(C#N)cc1` [Compound 139] belongs more than 10000 nM.
To `CN(CCN)Cc1c[nH]nc1-c1ccccc1C#N` [Compound 140] belongs 3010 to 10000 nM.
In turn, `CN(CCN)Cc1c[nH]nc1-c1ccc(C(F)(F)F)c(F)c1` [Compound 141] showed an IC50 of 101 to 1000 nM.
Next, `COc1cc(-c2n[nH]cc2CN(C)CCN)ccc1F` [Compound 142]: 101 to 1000 nM; `CCN(CC)C(=O)c1ccc(-c2n[nH]cc2CN(C)CCN)cc1` [Compound 143]: 1010 to 3000 nM; `CC(C)Oc1ccc(-c2c[nH]nc2CN(C)CCN)cc1F` [Compound 144]: 101 to 1000 nM.
To `CN(CCN)Cc1n[nH]cc1-c1ccc(C2CCOCC2)cc1` [Compound 145] belongs 101 to 1000 nM; to `COc1ccc(-c2n[nH]cc2CN(C)CCN)c(Cl)c1` [Compound 146], 1010 to 3000 nM.
To `CN(CCN)Cc1c[nH]nc1-c1cc(C#N)ccc1Cl` [Compound 147] belongs more than 10000 nM; to `CN(CCN)Cc1c[nH]nc1-c1ccc(C(F)(F)F)cc1F` [Compound 148], 101 to 1000 nM.
`CN(CCN)Cc1c[nH]nc1-c1cccc(N(C)C)c1` [Compound 149] had an IC50 of 101 to 1000 nM.
As for `CCOC(=O)c1cccc(-c2n[nH]cc2CN(C)CCN)c1` [Compound 150], the IC50 lay within 101 to 1000 nM.
Next, `COc1cc(F)ccc1-c1n[nH]cc1CN(C)CCN` [Compound 151]: 1010 to 3000 nM; `Cc1cc(F)ccc1-c1n[nH]cc1CN(C)CCN` [Compound 152]: 101 to 1000 nM.
In turn, `COc1ccc(-c2n[nH]cc2CN(C)CCN)cc1` [Compound 153] showed an IC50 of 101 to 1000 nM.
Next, `COc1ccc(-c2n[nH]cc2CN(C)CCN)c(C(F)(F)F)c1` [Compound 154]: 3010 to 10000 nM; `COc1ccc(-c2n[nH]cc2CN(C)CCN)c(C)c1` [Compound 155]: 101 to 1000 nM.
In the case of `CN(CCN)Cc1c[nH]nc1-c1cc(Cl)ccc1F` [Compound 156], the IC50 was in the range of 1010 to 3000 nM.
The compound `COc1ccc(Cl)cc1-c1n[nH]cc1CN(C)CCN` [Compound 157] gave an IC50 of 3010 to 10000 nM.
Turning to `Cc1ccc(C#N)cc1-c1n[nH]cc1CN(C)CCN` [Compound 158], the IC50 is more than 10000 nM.
To `Cc1ccc(F)cc1-c1n[nH]cc1CN(C)CCN` [Compound 159] belongs 101 to 1000 nM; to `COc1ccc(F)cc1-c1n[nH]cc1CN(C)CCN` [Compound 160], 3010 to 10000 nM.
To `Cc1ccccc1-c1n[nH]cc1CN(C)CCN` [Compound 161] belongs 1010 to 3000 nM.
To `Cc1ccc(-c2n[nH]cc2CN(C)CCN)cc1` [Compound 162] belongs 101 to 1000 nM; to `CCN(C)C(=O)c1ccc(-c2n[nH]cc2CN(C)CCN)cc1` [Compound 163], 1010 to 3000 nM; to `CC(C)CN(C)C(=O)c1ccc(-c2n[nH]cc2CN(C)CCN)cc1` [Compound 164], 1010 to 3000 nM.
The compound `CCOc1ccc(-c2n[nH]cc2CN(C)CCN)cc1` [Compound 166] displayed an IC50 of 101 to 1000 nM.
The compound `COCCOc1ccc(-c2n[nH]cc2CN(C)CCN)cc1` [Compound 167] came in with an IC50 of 101 to 1000 nM.
Next, `Cc1[nH]nc(-c2ccc(F)cc2)c1CN(C)CCN` [Compound 169]: 1010 to 3000 nM; `CC(C)Cc1ccc(-c2c[nH]nc2CN(C)CCN)cc1` [Compound 170]: 101 to 1000 nM; `NCCN(CCO)Cc1c[nH]nc1-c1ccc(F)cc1` [Compound 171]: 1010 to 3000 nM.
Next, `CN(CCN)Cc1c[nH]nc1-c1ccc(OCCN2CCOCC2)cc1` [Compound 172]: 3010 to 10000 nM; `CN(CCN)Cc1c[nH]nc1-c1ccc2c(c1)NC(=O)CO2` [Compound 173]: 3010 to 10000 nM.
